Consider one compound from article PMC9147192, “Small Molecule Arranged Thermal Proximity Coaggregation (smarTPCA)—A Novel Approach to Characterize Protein–Protein Interactions in Living Cells by Similar Isothermal Dose–Responses” (International Journal of Molecular Sciences, 2022).

For assay [1], the target named is T1, PDIA6 (Homo sapiens, UniProt Q15084).
T1 construct: endogenous in cells; host or cells: HL-60 (ATCC CCL-240)
T1 sequence (Q15084 20-440): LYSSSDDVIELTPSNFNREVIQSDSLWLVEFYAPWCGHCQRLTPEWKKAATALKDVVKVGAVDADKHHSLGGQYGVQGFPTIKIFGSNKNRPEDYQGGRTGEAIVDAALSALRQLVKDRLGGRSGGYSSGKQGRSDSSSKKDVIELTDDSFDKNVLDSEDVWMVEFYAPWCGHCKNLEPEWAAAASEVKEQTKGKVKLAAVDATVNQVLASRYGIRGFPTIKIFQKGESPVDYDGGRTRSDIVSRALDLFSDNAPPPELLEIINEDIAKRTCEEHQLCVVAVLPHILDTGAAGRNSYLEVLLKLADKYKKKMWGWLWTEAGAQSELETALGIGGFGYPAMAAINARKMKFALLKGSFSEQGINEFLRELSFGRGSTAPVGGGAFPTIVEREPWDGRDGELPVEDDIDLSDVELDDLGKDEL
Nature of the assay: TPP-CCR in living HL-60 cells. In kind it is cell-based.

Assay [2] has as its target T2, NOP2 (Homo sapiens, UniProt P46087).
T2 construct: dose–responses (mean over replicates), derived from TPP-CCR experiments in living cells; endogenous in cells; host or cells: HL-60 cells (ATCC No. CCL-240)
T2 sequence (P46087 1-812): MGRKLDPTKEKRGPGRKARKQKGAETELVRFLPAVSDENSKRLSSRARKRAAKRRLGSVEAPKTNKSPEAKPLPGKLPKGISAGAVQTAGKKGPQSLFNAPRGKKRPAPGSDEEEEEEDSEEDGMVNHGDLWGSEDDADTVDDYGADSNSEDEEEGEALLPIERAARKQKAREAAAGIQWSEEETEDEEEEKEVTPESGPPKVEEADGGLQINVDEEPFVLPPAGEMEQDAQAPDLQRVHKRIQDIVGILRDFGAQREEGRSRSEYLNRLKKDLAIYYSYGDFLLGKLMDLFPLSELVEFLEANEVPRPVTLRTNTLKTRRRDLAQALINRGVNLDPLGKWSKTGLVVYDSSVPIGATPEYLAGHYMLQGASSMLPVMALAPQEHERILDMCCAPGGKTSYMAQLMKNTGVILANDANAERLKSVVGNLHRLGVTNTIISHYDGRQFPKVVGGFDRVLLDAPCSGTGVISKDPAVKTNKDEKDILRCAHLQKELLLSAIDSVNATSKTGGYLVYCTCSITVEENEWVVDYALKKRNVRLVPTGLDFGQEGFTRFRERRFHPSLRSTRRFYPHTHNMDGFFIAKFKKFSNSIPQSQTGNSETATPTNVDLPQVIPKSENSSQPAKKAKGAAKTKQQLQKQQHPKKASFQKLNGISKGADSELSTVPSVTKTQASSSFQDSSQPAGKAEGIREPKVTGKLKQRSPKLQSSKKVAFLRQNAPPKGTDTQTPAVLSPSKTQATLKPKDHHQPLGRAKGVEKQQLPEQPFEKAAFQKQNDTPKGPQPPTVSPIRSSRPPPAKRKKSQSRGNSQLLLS
In words: TPP-CCR in living HL-60 cells. In kind it is cell-based.

Where [3] appears, read: living HL-60 cells, […] °C, TMT-MS.

The Hill slope is the slope factor of the fitted curve. Regarding `Cc1cnc(Nc2ccc(F)cc2Cl)nc1-c1c[nH]c(C(=O)N[C@H](CO)c2cccc(Cl)c2)c1` [ERK 11e], the Hill slope in assay [1] (TPP-CCR, living cells, PDIA6) is listed as 1.33; in assay [2] (TPP-CCR, living cells, NOP2), 0.29. The “Hill slope (PDIA6)” value in assay [1] (setting [3]) is on record as 1.33. In addition, the EC50 was 3.55 µM in assay [1] (living HL-60 cells, […] °C, TMT-MS, read-out: pEC50 (PDIA6) (converted)) and 0.105 µM in assay [2] (living HL-60 cells, […] °C, TMT-MS, read-out: pEC50 (NOP2) (converted)). The “Hill slope (NOP2)” value in assay [2] (setting [3]) came to 0.29.
